pIC50: −log10 of the molar value. Like-named read-outs stand apart in the source and are kept apart here.
What was measured:
[1] = test system: collagen induced platelet aggregation in human platelet rich plasma; assay: inhibition of platelet aggregation induced in vitro by collagen in human platelet rich plasma; type: cell-based; settings: Table C, read-out: IC50 against collagen induced aggregation
Source text: The compounds were examined for their ability to inhibit platelet aggregation induced in vitro by collagen in human platelet rich plasma.

[2] = test system: 5-hydroxytryptamine induced bronchoconstriction; assay: inhibition of 5-hydroxytryptamine induced bronchoconstriction in the anaesthetised, artificially respired guinea pig (Konzett-Rossler preparation); type: in vivo; settings: for ED50: Cavia porcellus, iv
Description: 1. The compounds were examined for their ability to inhibit 5-hydroxytryptamine induced bronchoconstriction in the anaesthetised, artificially respired guinea pig (Konzett-Rossler preparation) The compounds were administered intravenously.
The test for bronchodilator activity used in `Bronchodilator activity` method 1 above was used with three test animals for the comparison testing of Compound 5 against the compound 5-(6-carboxyhexyl)-1-(3-hydroxy-4,4-dimethyloctyl)hydantoin (A) highlighted in German Offenlegungsschrift No. 2724948 for its anti-bronchoconstriction activity.

[3] = test system: indomethacin induced gastric damage; assay: anti-ulcer activity: inhibition of indomethacin induced gastric damage in the rat; type: in vivo; settings: 100 mg/kg orally
Description: Anti-ulcer activity was assessed by the inhibition of indomethacin induced gastric damage in the rat according to the method of Eleghe (1974) Israeli J. Med. Sci. IO, 1451. Rats were starved overnight, given 15 mg/kg indomethacin subcutaneously and sacrificed 4 hours later. Stomachs were reflated with n.saline, cut along the greater curvature pinned out and scored for gastric damage by the following system.
Score 1-3--according to degree of erythema and slight haemorrhage.
Score 4-6--according to degree of mucosal erosion.
Score 7-9--according to depth of gastric damage.
Groups of 7 rats were used for each treatment and the test compound or vehicle were administered 30 minutes prior to giving the indomethacin. Dose of test compound was 100 mg/kg orally and control groups receiving vehicle only were set up simultaneously. Mean values for each treatment were obtained using the above scoring system and the Mann Witney test applied for significance of difference between the values obtained with the treatments.

[4] = test system: bronchoconstriction induced by a histamine aerosol; assay: protection of conscious guinea pigs against bronchoconstriction induced by a histamine aerosol (Herxheimer test); type: in vivo, guinea pig; settings: Table B, compound by aerosol
Source text: 2. The compounds were also examined for their ability to protect conscious guinea pigs against bronchoconstriction induced by a histamine aerosol (Herxheimer test). In these experiments the compounds were adminstered by aerosol.

[5] = test system: arrhythmia in electrostimulation of the right ventricle; assay: anti-arrhythmic activity: increase of the voltage required to produce arrhythmia in electrostimulation of the right ventricle; type: in vivo, guinea pig; settings: Table D; anaesthetised guinea pigs, 32.0 mg/kg I.d.; p<0.5 (so in the source)
Source text: Compound 5 was examined for its ability to increase the voltage required to produce arrhythmia in electrostimulation of the right ventricle in anaesthatised guinea pigs.

[6] = Table A, anaesthetised guinea pig, i.v., read-out: ED50 against 5-hydroxytryptamine induced bronchoconstriction
[7] = Table E, comparison testing, three test animals, guinea pig, read-out: ED50 (mean)

Compound	pIC50 [1]	ED50 [2, 6] [µg/kg]	Mean Score ± S.E. of mean (gastric damage) ([3]; 30 minutes before 15 mg/kg indomethacin s.c., score 1-9, vehicle control 4.14±0.59, p<0.01)	anti-ulcer activity (in words) ([3]; compared with vehicle only treatment)	Activity, Aerosol administration (Herxheimer test) [4] [µg/mL]	% increase of voltage ± SEM [5] [%]	ED50 [2, 7] [µg/kg]	bronchodilator potency of compound 5 relative to Compound A ([2]; comparison testing, Table E)
CCCCC(C)C(C)(O)CCN1C(=O)N(C)C(=O)C1CC=CCCCC(=O)O (stereo not drawn) [Compound 4, 1-(3'-hydroxy-3'-methyl-4'-methyl-n-octyl)-3-methyl-5(6"-carboxy-n-hex-2"- enyl)hydantoin]	4.55	0.6	0.43±0.20	reduced the mean ulcer score and therefore has significant anti-ulcer activity	0.5	–	–	–
CCCCCCC(C)(O)CCN1C(=O)N(C)C(=O)C1CC=CCCCC(=O)O (stereo not drawn) [Compound 5]	4.66	1.3	–	–	1	43.0 ± 7.0	1.2	at least an order of magnitude more potent
CCCCC(C)(C)C(O)CCN1C(=O)NC(=O)C1CCCCCCC(=O)O (stereo not drawn) [Compound A, 5-(6-carboxyhexyl)-1-(3-hydroxy-4,4-dimethyloctyl)hydantoin, reference compound]	–	–	–	–	–	–	24.6	–

Source: patent publication US4298745A, “Hydantoin derivatives” (Beecham Group Limited, priority 1978, dated 1981)
